Experimental data published in ChEMBL document CHEMBL6134771, “Ligand-centred phenotype-driven development of potent kinase inhibitors against oesophageal cancer” (RSC Med Chem, 2025).
Calls of active or inactive are those of the source. The rule behind the calls is not given here.

Tests used:
Aurora kinase A = molecular target: T1, Aurora kinase A (Homo sapiens, UniProt O14965); assay: Inhibition of recombinant AuroraA (unknown origin)
T1 sequence (O14965 whole entry): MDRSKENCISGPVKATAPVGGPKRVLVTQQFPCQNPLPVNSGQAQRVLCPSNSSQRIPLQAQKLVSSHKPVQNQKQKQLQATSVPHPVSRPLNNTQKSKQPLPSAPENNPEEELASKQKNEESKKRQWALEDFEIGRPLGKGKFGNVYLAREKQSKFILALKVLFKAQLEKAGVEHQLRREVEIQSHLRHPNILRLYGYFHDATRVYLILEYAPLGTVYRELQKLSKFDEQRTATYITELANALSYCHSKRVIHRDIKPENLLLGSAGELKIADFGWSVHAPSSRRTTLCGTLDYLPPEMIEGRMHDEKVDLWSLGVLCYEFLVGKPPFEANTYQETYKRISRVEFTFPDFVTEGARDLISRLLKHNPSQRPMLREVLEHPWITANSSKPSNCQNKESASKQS

OE33 [1] = assay: Antiproliferative activity against human OE33 cells assessed as reduction in cell viability at 0.003 to 30 uM measured after 5 days by PrestoBlue reagent based fluorescence analysis; type: functional; conditions: dose 0.003-30 µM, time 5.0 day
FLO-1 = assay: Antiproliferative activity against human FLO-1 cells assessed as reduction in cell viability at 0.003 to 30 uM measured after 5 days by PrestoBlue reagent based fluorescence analysis; type: functional; conditions: dose 0.003-30 µM, time 5.0 day
SKGT4 = assay: Antiproliferative activity against human SKGT4 cells assessed as reduction in cell viability at 0.003 to 30 uM measured after 5 days by PrestoBlue reagent based fluorescence analysis; type: functional; conditions: dose 0.003-30 µM, time 5.0 day
OACp4C = assay: Antiproliferative activity against human OACp4C cells assessed as reduction in cell viability at 0.003 to 30 uM measured after 5 days by PrestoBlue reagent based fluorescence analysis; type: functional; conditions: dose 0.003-30 µM, time 5.0 day
MFD-1 = assay: Antiproliferative activity against human MFD-1 cells assessed as reduction in cell viability at 0.003 to 30 uM measured after 5 days by PrestoBlue reagent based fluorescence analysis; type: functional; conditions: dose 0.003-30 µM, time 5.0 day
JH-EsoAd1 = assay: Antiproliferative activity against human JH-EsoAd1 cells assessed as reduction in cell viability at 0.003 to 30 uM measured after 5 days by PrestoBlue reagent based fluorescence analysis; type: functional; conditions: dose 0.003-30 µM, time 5.0 day
CP-A = assay: Antiproliferative activity against human CP-A cells assessed as reduction in cell viability at 0.003 to 30 uM measured after 5 days by PrestoBlue reagent based fluorescence analysis; type: functional; conditions: dose 0.003-30 µM, time 5.0 day
EPC-2 = assay: Antiproliferative activity against human EPC-2 cells assessed as reduction in cell viability at 0.003 to 30 uM measured after 5 days by PrestoBlue reagent based fluorescence analysis; type: functional; conditions: dose 0.003-30 µM, time 5.0 day
OE33 [2] = assay: cells; conditions: Homo sapiens, OE33, 120 h
Description: Antiproliferative activity against human OE33 cells assessed as reduction in cell viability measured after 5 days by PrestoBlue reagent based fluorescence analysis

cells [3] = conditions: Homo sapiens, FLO-1, 120 h
Description: Antiproliferative activity against human FLO-1 cells assessed as reduction in cell viability measured after 5 days by PrestoBlue reagent based fluorescence analysis

cells [4] = conditions: Homo sapiens, MFD-1, 120 h
Description: Antiproliferative activity against human MFD-1 cells assessed as reduction in cell viability measured after 5 days by PrestoBlue reagent based fluorescence analysis

cells [5] = conditions: Homo sapiens, SKGT4, 120 h
Description: Antiproliferative activity against human SKGT4 cells assessed as reduction in cell viability measured after 5 days by PrestoBlue reagent based fluorescence analysis

Row | Compound | Activity (OE33 [1]) | Activity (FLO-1) | other results
1 | CNc1ncc2c(/C=C/C(=O)N3CCC(OC)CC3)nn(Cc3cccc(C(F)(F)F)c3)c2n1 |  |  | IC50 (Aurora kinase A): 1450 nM
2 | CNc1ncc2c(/C=C/C(=O)N3CCC(OC)CC3)nn(C(C)C)c2n1 | inactive | inactive | 
3 | CCOC(Cn1nc(/C=C/C(=O)N2CCC(OC)CC2)c2cnc(NC)nc21)OCC | inactive | inactive | 
4 | CNc1ncc2c(/C=C/C(=O)N3CCC4(CC3)OCCO4)nn(Cc3cccc(C(F)(F)F)c3)c2n1 |  |  | Activity (SKGT4): Active; Activity (OACp4C): Active; Activity (MFD-1): Active; Activity (JH-EsoAd1): Active; Activity (CP-A): Active; Activity (EPC-2): Active; EC50 (OE33 [2]): 560 nM; EC50 (cells [3]): 700 nM; EC50 (cells [4]): 920 nM; EC50 (cells [5]): 2900 nM
5 | CNc1ncc2c(/C=C/C(=O)N3CCC(OC)CC3)nn(CC3CCCO3)c2n1 (stereo not given) | inactive | inactive | 
6 | CNc1ncc2c(/C=C/C(=O)N3CCC(OC)CC3)nn(Cc3ccccc3C(F)(F)F)c2n1 | inactive | inactive | 
7 | CNc1ncc2c(/C=C/C(=O)N3CCC(OC)CC3)nn(Cc3ccc(C)cc3)c2n1 | Active; Partial Restoration Of Antiproliferative Activity Observed | Active; Partial Restoration Of Antiproliferative Activity Observed | 
8 | CNc1ncc2c(/C=C/C(=O)N3CCCC(OC)C3)nn(Cc3cccc(C)c3)c2n1 (stereo not given) | inactive | inactive | 
9 | Nc1ncnc2c1c(/C=C/C(=O)O)nn2CC1CCCC1 | inactive | inactive | 
10 | CNc1ncc2c(/C=C/C(=O)N3CCC(CCO)CC3)nn(CC3CCCC3)c2n1 |  | Active | 
11 | CNc1ncc2c(/C=C/C(=O)N3CCCC(N(C)C)C3)nn(CC3CCCC3)c2n1 (stereo not given) |  | Active | 
12 | CN(C)C1CCCN(C(=O)/C=C/c2nn(CC3CCCC3)c3ncnc(N)c23)C1 (stereo not given) | inactive | inactive | 
13 | CN(C)C1CCN(C(=O)/C=C/c2nn(CC3CCCC3)c3ncnc(N)c23)CC1 | inactive | inactive | 
14 | CNc1ncc2c(/C=C/C(=O)N3CCC(OC)CC3)nn(Cc3cccc(C)c3)c2n1 | Active | Active | EC50 (OE33 [2]): 1800 nM; EC50 (cells [3]): 2500 nM
15 | Nc1ncnc2c1c(/C=C/C(=O)N1CCC(CCO)CC1)nn2CC1CCCC1 | inactive | inactive | 
16 | CNc1ncc2c(/C=C/C(=O)N3CCC(c4ccccc4)CC3)nn(CC3CCCC3)c2n1 |  | Active | 
17 | CNc1ncc2c(/C=C/C(=O)N3CCC(N(C)C)CC3)nn(CC3CCCC3)c2n1 |  | Active | 
18 | CNc1ncc2c(/C=C/C(=O)N3CCC(OC)CC3)nn(Cc3ccccc3C)c2n1 | inactive | inactive | 
19 | CCOC1CCN(C(=O)/C=C/c2nn(Cc3cccc(C)c3)c3nc(NC)ncc23)CC1 | inactive | inactive | 
20 | CNc1ncc2c(/C=C/C(=O)N3CCC4(CC3)OCCO4)nn(Cc3cccc(C)c3)c2n1 | Active | Active | EC50 (OE33 [2]): 830 nM; EC50 (cells [3]): 1240 nM
21 | CC1CCN(C(=O)/C=C/c2nn(CC3CCCC3)c3ncnc(N)c23)CC1 | inactive | inactive | 
22 | COC(=O)/C=C/c1nn(CC2CCCC2)c2ncnc(N)c12 | inactive | inactive | 
23 | CNc1ncc2c(/C=C/C(=O)N3CCC(OC)CC3)nn(Cc3ccc(OC)cc3)c2n1 | Active; Partial Restoration Of Antiproliferative Activity Observed | Active; Partial Restoration Of Antiproliferative Activity Observed | 

Row | Compound | Activity (OE33 [1]) | Activity (FLO-1) | other results
24 | COC1CCN(C(=O)/C=C/c2nn(CC3CCCC3)c3ncnc(N)c23)CC1 | inactive | inactive | 
25 | CNc1ncc2c(/C=C/C(=O)N3CCC(O)CC3)nn(CC3CCCC3)c2n1 |  | Active | 
26 | CNc1ncc2c(/C=C/C(=O)N3CCC(OC)CC3)nn(CC(OC)OC)c2n1 | inactive | inactive | 
27 | CNc1ncc2c(/C=C/C(=O)O)nn(CC3CCCC3)c2n1 | inactive | inactive | 
28 | CNc1ncc2c(/C=C/C(=O)N3CCC(OC)CC3)nn(CC3CCCC3)c2n1 |  | Active | EC50 (OE33 [2]): < 9000 nM; EC50 (cells [3]): < 9000 nM
29 | CNc1ncc2c(/C=C/C(=O)N3CCOCC3)nn(CC3CCCC3)c2n1 |  | Active | 
30 | CNc1ncc2c(/C=C/C(=O)N3CCCCC3)nn(CC3CCCC3)c2n1 |  | Active | 
31 | Nc1ncnc2c1c(/C=C/C(=O)N1CCC(O)CC1)nn2CC1CCCC1 | inactive | inactive | 
32 | CNc1ncc2c(/C=C/C(=O)N3CCC(OC)CC3)nn(Cc3ccccc3)c2n1 | Active | Active | 
33 | CNc1ncc2c(/C=C/C(=O)N3CCC(OC)CC3)nn(CC(C)(C)C)c2n1 | inactive | inactive | 
34 | Nc1ncnc2c1c(/C=C/C(=O)N1CCCCC1)nn2CC1CCCC1 | inactive | inactive | 
35 | CNc1ncc2c(/C=C/C(=O)N3CCC(COC)CC3)nn(Cc3cccc(C)c3)c2n1 | inactive | inactive | 
36 | CNc1ncc2c(/C=C/C(=O)N3CCCC3)nn(CC3CCCC3)c2n1 |  | Active | 
37 | CNc1ncc2c(/C=C/C(=O)N3CCC(OC)CC3)nn(Cc3cccc(OC)c3)c2n1 | Active | Active | 
38 | Nc1ncnc2c1c(/C=C/C(=O)N1CCCC1)nn2CC1CCCC1 |  |  | EC50 (OE33 [2]): ~30000 nM; EC50 (cells [3]): ~30000 nM
39 | CNc1ncc2c(/C=C/C(=O)N3CCC(OC)CC3)nn(CC3OCCO3)c2n1 | inactive | inactive | 
40 | CNc1ncc2c(/C=C/C(=O)N3CCC(OC)CC3)nn(CC3CCCCC3)c2n1 | Active | Active | 
41 | CNc1ncc2c(/C=C/C(=O)N3CCC(C)CC3)nn(CC3CCCC3)c2n1 |  | Active | 
42 | CNc1ncc2c(/C=C/C(=O)N3CCC(OC)CC3)nn(Cc3ccccc3OC)c2n1 | inactive | inactive | 
43 | CNc1ncc2c(/C=C/C(=O)N3CCC(OC)CC3)nn(Cc3ccc(C(F)(F)F)cc3)c2n1 | Active; Partial Restoration Of Antiproliferative Activity Observed | Active; Partial Restoration Of Antiproliferative Activity Observed | 
44 | Nc1ncnc2c1c(/C=C/C(=O)N1CCC(c3ccccc3)CC1)nn2CC1CCCC1 |  |  | EC50 (OE33 [2]): ~30000 nM; EC50 (cells [3]): ~30000 nM
45 | CNc1ncc2c(/C=C/C(=O)N3CCC(OC)CC3)nn(CCC(C)C)c2n1 | inactive | inactive | 
46 | Nc1ncnc2c1c(/C=C/C(=O)N1CCOCC1)nn2CC1CCCC1 | inactive | inactive | 
